Experimental data taken from patent US7569526B2, “Anti-oxidants in soluble oil base for metal working fluids” (Crompton Corporation, priority 2003, dated 2009).
Values joined by “and” are separate entries in the source; they are usually repeats but may differ in a detail not shown here. Equal entries are not always repeated. Blank lines part the entries; values can stand above or below the compound they belong to.

Assays:
[1] = Modified ASTM D3946 bottle test, sediment and pH (Examples 25-34); assay type: physicochemical; details: 25° C.; filtered at end of test
Procedure: (§1) A modified ASTM D3946 method was run according to the following procedure:
(§2) 1. A 1-quart straight side jar was filled with 500 mL of emulsion. (Note: the straight sides of the jar allow culture plates to be immersed in the emulsion in situ. No steel chips were added.)
(§3) 2. While immersed in a 25° C. water bath, the jars were sparged with air using a disposable pipette at a flow rate of approximately 500 mL/min. (Note: this may need to be adjusted depending on the air supply and the amount of foaming observed).
(§4) 3. The pH was measured using standard pH paper or pH meter and bacteria/fungus counts were measured at one and two week intervals using culture plates (SaniCheck BF culture plates from Biosan Laboratories, Inc. were use in this study, but there are many suppliers available). Although the manufacturers protocol called for incubation between 24 and 36 hours, the bacteria counts were measured after 24, 30, and 48-hour incubations at 28° C. The bacterial onset was measured as the number of weeks necessary to observe at least a 10^3 bacteria count/mL on the culture plate (threshold value of this type of plate). Optionally, the average bacterial count can be calculated over the length of the test period.
4. At the end of the test, the solutions were filtered through medium filter paper (Whatman #2) and the amount of sediment recovered was weighed.
(§5) 5. Unless noted above, the other test details are identical to ASTM D3946.
In this case, after 22 weeks the pH broke and dropped from 9.0 to 7.0. In all other samples, the pH was measured between 8.5 and 9.0, without significant change over the test period.

bacteria = test: Modified ASTM D3946 bottle test, bacteria count and onset (Examples 25-34); assay type: cell-based; details: 30 hours of incubation
Procedure: as §1, §2, §3, §4, §5
The biological activity was evaluated using a Sanicheck BF Conversion Chart. […]

[2] = RBOT, standard ASTM D2272 (150 C.), bomb life; assay type: physicochemical
Source text: (§6) The antioxidants used in this study were received from internal and external commercial sources without alteration. The sample of butylated DPA was from a preparation of Naugalube 640 in which the sample was enriched in butylated DPA.
The ASTM D2272 method was run according to the standard procedure using a 10/90 (oil/water) emulsion as a test sample.

[3] = TOST, standard ASTM D943 (95° C.), acid number; assay type: physicochemical; details: 0.5% Triadine-3 in Hyprene H100; two separate runs; baseline
Source text: as §6
Combining the results of Examples 11-24 with those of Examples 1-10, the synergies involved in the oxidation testing used can be seen. […] Hyprene H100 is a 100 SUS naphthenic oil. Although there is a large variation in the baseline, the general antioxidant chemistry trends (phenolic vs. aminic) were consistent.

[4] = Modified ASTM D2272 (150 C.), constant time; assay type: physicochemical; details: after oxidation
Procedure: 1. Charge the vessel with 50 grams of the emulsion sample provided.
3. Unless noted above, the other test details are identical to ASTM D2272.
With the success of the 95° C. modified ASTM, thermal breakdown for the metalworking fluids at even higher temperature was tested. The test chosen was a modified ASTM D2272 (RBOT) which is run at 150° C. in a sealed bomb, which should provide sufficient stress to provide significant oxidative breakdown of the metalworking fluid. The test was modified so that after the inhibited sample had reduced pressure by 175 psi, all of the oxidations were stopped so that the time of the oxidation would be a constant (typically the test is run to a constant pressure drop value and the time is allowed to vary). […] Additionally, the pH of all samples dropped from the initial 9.0 to 3.0, with the exception of the sample of Naugalube 640, which dropped to 7.0.

[5] = Modified ASTM D943 oxidation (95 C.), constant time; assay type: physicochemical; details: aging time 312 hrs
Procedure: 1. Fill the oxidation test tube with 300 ml of the emulsion sample provided.
2. When the first sample containing no antioxidant or biocide reaches a TAN (total acid number) of 2.0 mg/g KOH, stop all of the oxidations at that same time and measure the TAN. During the course of the testing it may be necessary to add a small amount of defoamer (1 drop of Foam Ban MS-575 from Ultra Additives) to prevent excessive foaming and loss of sample out of the top of the test apparatus. 3. Unless noted above the other test details are identical to ASTM D943
Accordingly, additional thermal stress was applied to accentuate differences in antioxidant performance. The test chosen to do this was a modified ASTM D943 run at 95° C., which it was expected would provide some oxidative breakdown of the metalworking fluid. The test was modified so that after the uninhibited sample had reached a TAN value of 2 mg KOH/g all of the oxidations were stopped so that the time of the oxidation would be a constant (typically the test is run to a constant TAN value and the time is allowed to vary).

Compound: Cc1cc(C(C)(C)C)c(O)c(C(C)(C)C)c1 [BHT, 2,6-di-t-butyl hydroxytoluene]
synergy of antioxidant and biocide on onset time (bacteria): weakest
Sediment [1]: antagonistically increased the sediment in combination with biocide

Compound: OCCN1CN(CCO)CN(CCO)C1 [Triadine 3, 1,3,5-tris(hydroxyethyl)-s-triazine]
Bomb Life ([2]; 0.5% Triadine-3 in Hyprene H100, two separate runs, baseline): 35 min and 37 min
Oxidation Lifetime [3]: 492 h and 836 h

Compound: butylated octylated diphenylamine [Naugalube 640]
Bomb Life (min) ([2]; 150 C., Table 1 blends): terminated before a break point was ever observed
Cream (%) [4]: < 1.0%
pH ([4]; initial 9.0): 7.0
synergy of antioxidant and biocide on onset time (bacteria): strongest
Sediment [1]: reduced the sediment

Compound: butylated octylated diphenylamine [butylated DPA]
Sediment [1]: reduced the sediment

More lines, now with the values ahead:

Sediment [1]: reduced the sediment
Compound: CC(C)(C)c1cc(CCC(=O)OCCSCCOC(=O)CCc2cc(C(C)(C)C)c(O)c(C(C)(C)C)c2)cc(C(C)(C)C)c1O [AX 15, Thiodiethylene-bis(3,5-di-t-butyl-4-hydroxyhydrocinnamate)]

Cream (%) [5]: no significant cream
Compound: mono-, di-, and tri-, nonylated diphenylamine [Naugalube 438L]

Cream (%) [5]: no significant cream
Compound: octylated phenyl-α-naphthylamine [Naugalube APAN]
